Measurements as given in ChEMBL document CHEMBL3272341, “Cellular pharmocodynamics of several anthrocycline antibiotics” (J Med Chem, 1976).

Tests used:
L1210 [1] = test: Cellular uptake in mouse L1210 cells assessed per 10^6 cells at 3 uM up to 120 mins; format: ADME, cell-based; conditions: l1210, 2 h
L1210 [2] = test: Ratio of inhibition of [14C]-uridine incorporation into RNA in mouse L1210 cells to cellular uptake in mouse L1210 cells
L1210 [3] = test: Inhibition of DNA synthesis in mouse L1210 cells assessed as inhibition of [3H]-thymidine incorporation measured per 10^6 cells […] pretreated for 1 hr followed by radiotracer addition measured after 1 hr by scintillation spectrometric analysis relative to control; format: functional
L1210 [4] = test: Inhibition of RNA synthesis in mouse L1210 cells assessed as inhibition of [14C]-uridine incorporation measured per 10^6 cells at 3 uM pretreated for 1 hr followed by radiotracer addition measured after 1 hr by scintillation spectrometric analysis relative to control; format: functional
L1210 [5] = test: Inhibition of RNA synthesis in mouse L1210 cells assessed as inhibition of [14C]-uridine incorporation measured per 10^6 cells […] pretreated for 1 hr followed by radiotracer addition measured after 1 hr by scintillation spectrometric analysis relative to control; format: functional
L1210 [6] = test: Inhibition of DNA synthesis in mouse L1210 cells assessed as inhibition of [3H]-thymidine incorporation measured per 10^6 cells at 5 uM pretreated for 1 hr followed by radiotracer addition measured after 1 hr by scintillation spectrometric analysis relative to control; format: functional
L1210 [7] = test: Ratio of inhibition of [3H]-thymidine incorporation into DNA in mouse L1210 cells to cellular uptake in mouse L1210 cells
L1210 [8] = test: Inhibition of DNA synthesis in mouse L1210 cells assessed as inhibition of [3H]-thymidine incorporation measured per 10^6 cells at 3 uM pretreated for 1 hr followed by radiotracer addition measured after 1 hr by scintillation spectrometric analysis relative to control; format: functional
L1210 [9] = test: Inhibition of RNA synthesis in mouse L1210 cells assessed as inhibition of [14C]-uridine incorporation measured per 10^6 cells at 5 uM pretreated for 1 hr followed by radiotracer addition measured after 1 hr by scintillation spectrometric analysis relative to control; format: functional

Drug uptake (L1210 [1]) [nmol] | Structure (SMILES) | Ratio (L1210 [2]) | inhibition at 1 µM (L1210 [3]) [%] | inhibition at 3 µM (L1210 [4]) [%] | inhibition at 1 µM (L1210 [5]) [%] | inhibition at 5 µM (L1210 [6]) [%] | Ratio (L1210 [7]) | inhibition at 3 µM (L1210 [8]) [%] | inhibition at 5 µM (L1210 [9]) [%]
0.31 | COc1cccc2c1C(=O)c1c(O)c3c(c(O)c1C2=O)C[C@@](O)(C(C)=O)C[C@@H]3O[C@H]1C[C@H](N)[C@H](O)[C@H](C)O1 [DAUNORUBICIN] | 155 | 37 | 69.8 | 47.6 | 83 | 119 | 68.8 | 74.8
0.16 | COc1cccc2c1C(=O)c1c(O)c3c(c(O)c1C2=O)C[C@@](O)([C@@H](O)CO)C[C@@H]3O[C@H]1C[C@H](N)[C@H](O)[C@H](C)O1 | 137 | 23.7 | 17.9 | 10.1 | 32 | 200 | 25 | 22.4
0.19 | COc1cccc2c1C(=O)c1c(O)c3c(c(O)c1C2=O)C[C@@](O)(C(=O)CO)C[C@@H]3O[C@H]1C[C@H](N)[C@H](O)[C@H](C)O1 [DOXORUBICIN] | 121 | 28.9 | 50.8 | 22.5 | 52.2 | 152 | 34.5 | 56.9

Structure (SMILES) | Drug uptake (L1210 [1]) [nmol] | Ratio (L1210 [2]) | inhibition at 1 µM (L1210 [3]) [%] | inhibition at 3 µM (L1210 [4]) [%] | inhibition at 1 µM (L1210 [5]) [%] | inhibition at 5 µM (L1210 [6]) [%] | Ratio (L1210 [7]) | inhibition at 3 µM (L1210 [8]) [%] | inhibition at 5 µM (L1210 [9]) [%]
COc1cccc2c1C(=O)c1c(O)c3c(c(O)c1C2=O)C[C@@](O)(C(C)O)C[C@@H]3O[C@H]1C[C@H](N)[C@H](O)[C@H](C)O1 (stereo not given in full) | 0.33 | 88 | 12.1 | 28.9 | 11.2 | 36.8 | 94 | 30.8 | 46.4
COc1cccc2c1C(=O)C1=C(C2=O)C(O)C2=C(C1O)[C@@H](C[C@@H]1C[C@H](N)[C@@H](O)[C@H](C)O1)C[C@@](O)(/C(C)=N/NC(=O)c1ccccc1)C2 (stereo not given in full) [RUBIDAZONE] | 0.2 | 60 | 12.7 | 36.8 | 11.6 | 41 | 65 | 27.2 | 58.2
